Consider 24 molecules from patent US4904672A, “Derivatives of 3-hydroxyazabenzo[b]thiophene useful as 5-lipoxygenase inhibitors” (Merck & Co., Inc., priority 1988, dated 1990).

The assay deals with T1, PMN 5-lipoxygenase (Rattus norvegicus, UniProt P12527).
T1 sequence (P12527 1-673): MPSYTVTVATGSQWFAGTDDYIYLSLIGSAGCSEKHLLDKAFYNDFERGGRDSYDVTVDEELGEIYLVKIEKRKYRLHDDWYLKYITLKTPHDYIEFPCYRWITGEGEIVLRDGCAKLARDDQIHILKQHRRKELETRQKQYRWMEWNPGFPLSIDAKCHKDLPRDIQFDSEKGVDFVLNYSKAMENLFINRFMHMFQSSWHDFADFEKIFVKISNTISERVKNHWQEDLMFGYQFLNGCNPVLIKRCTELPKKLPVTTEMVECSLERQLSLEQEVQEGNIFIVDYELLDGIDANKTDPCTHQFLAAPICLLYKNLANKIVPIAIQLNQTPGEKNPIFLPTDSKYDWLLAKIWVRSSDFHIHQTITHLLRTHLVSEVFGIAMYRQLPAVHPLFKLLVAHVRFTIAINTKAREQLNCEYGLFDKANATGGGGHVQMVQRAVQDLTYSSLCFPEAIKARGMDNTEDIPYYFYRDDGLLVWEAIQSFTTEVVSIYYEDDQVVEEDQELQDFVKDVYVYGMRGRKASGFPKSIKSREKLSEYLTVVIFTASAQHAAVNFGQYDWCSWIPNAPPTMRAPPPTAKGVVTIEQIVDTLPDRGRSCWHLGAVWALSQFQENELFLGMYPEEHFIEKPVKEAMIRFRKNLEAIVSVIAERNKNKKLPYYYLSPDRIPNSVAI
The assay can be described thus: Inhibition of PMN 5-lipoxygenase in the rat (LTB4 by RIA, A23187-stimulated PMN). The class given is cell-based, rat (male Sprague-Dawley). As to conditions: for inhibition at 30 µg/mL: dose 0.03 mg/ml; for inhibition at 1000 µg/mL: dose 1 mg/ml; for inhibition at 10 µg/mL: dose 0.01 mg/ml. The protocol: 2. Inhibition of PMN 5-lipoxygenase in the rat Methods
Male Sprague-Dawley rates under ether anesthesia were injected i.p. with 8 mls of 12% aqueous sodium caseinate. After 15-24 hours the animals were sacrificed with CO2 and the peritoneal cavities were lavaged with Eagles MEM with Earles salts and containing L-glutamine and 30 mM HEPES. The pH was adjusted to 7.4. The lavage fluid was centrifuged for 5 minutes at 350×g at room temperature. The cells were resuspended in fresh medium and filtered through lens paper. The cells were pelleted again and reconstituted to concentration of 1×10^7 cells/ml with fresh medium.
The experiments were run as follows: 0.5μ of test compound in DMSO or 0.5 μl DMSO alone was added to reaction tubes. 0.5 ml aliquots of the stirred PMN suspension maintained at 37° C. were then added. After 2 minutes, 0.5 μl of 10 mM A23187 (final concentration=10 μM) or 0.5 μl of DMSO was added and allowed to incubate for 4 additional minutes at 37° C. The reaction was stopped by the addition of 0.5 ml of cold methanol. The precipitated proteins were removed by centrifugation and the supernatant fluid was analyzed via RIA or HPLC.
Radioimmunoassay determinations of LTB4
Radioimmunoassays were performed using the dextran-coated charcoal binding method as described by J. L. Humes in Methods for Studying Mononuclear Phagocytes (Eds. D. Adams et al.) p. 641, Academic Press, N.Y. (1981).
Aliquots, 2 μl, of the supernatant fluids were added to assay tubes and incubated for 10 minutes at 37° C. to remove methanol. Fifty μl of tissue culture medium M-199 containing 1 percent heat-inactivated-porcine serum was then added to each tube. Standard amounts of LTB4 were also prepared in this medium so that 50 μl aliquots contained 25-1000 pg. Antisera to LTB4 was diluted 1:3000 with 10 mM potassium phosphate, pH 7.3 containing 1 mM ethylenediaminetetracetic acid and 0.25 mM thimerasol (PET buffer). Aliquots, 100 μl, of the diluted antisera were added to both standard and unknown tubes and incubated at room temperature for 0.5 hour. (5,6,8,9,11,12,14,15-^3 H)-LTB4 (Amersham, 150 Ci/mMol) was diluted with PET to a concentration of 1 nCi/ml. Aliquots, 100 μl , were added and the mixture incubated for 2 hours at room temperature or alternatively overnight at 4° C. One ml of dextran-coated charcoal solution is added to all tubes. After centrifugation for 10 minutes at 1000×g the radioactivity in the supernatant fluid was determined.
The dextran-coated charcoal removes the unbound ^3 H-LTB4. Therefore in this procedure the antibody-bound-^3 H-LTB4 is measured. The RIA^4 determinations are performed on single samples.

One may read the inhibition as the drop in the measured response relative to a control, in per cent. A lower inhibition goes with a weak effect. As for `COc1ccc(-c2sc3cc(C)nc(C)c3c2OC(C)=O)cc1`, at 30 µg/mL the inhibition was 4%. For the same molecule, the inhibition at 100 µg/mL (dose 0.1 mg/ml) came to 45%. This molecule also displayed an inhibition at 300 µg/mL (dose 0.3 mg/ml) of 75%.
For the molecule `COc1ccc(-c2sc3cccnc3c2OC(C)=O)cc1` [N=4, R=(CO)CH3, X1=H, X2=p-OCH3, 3-Acetyloxy-2-(4-methoxyphenyl)-4-azabenzo[b]thiophene], at 1000 µg/mL the inhibition was 100%. Also, the inhibition at 100 µg/mL (dose 0.1 mg/ml) was 21%. The inhibition at 300 µg/mL (dose 0.3 mg/ml) is 73%.
Consider `CC(=O)Oc1c(-c2ccccc2)sc2ccncc12` [N=5, R=(CO)CH3, X1=H, X2=H, 3-Acetyloxy-5-aza-2-phenylbenzo[b]thiophene], for which, for the setting “dose 0.037 mg/ml”, 37 µg/mL produced 58% inhibition. In addition, where the note is “dose 0.1 mg/ml”, the inhibition at 100 µg/mL stood at 97%. This molecule gave an inhibition at 300 µg/mL (dose 0.3 mg/ml) of 100%.
`COc1ccc(-c2sc3ccncc3c2OC(C)=O)cc1` [N=5, R=(CO)CH3, X1=H, X2=p-OCH3, 3-Acetyloxy-5-aza-2-(4-methoxyphenyl)benzo[b]thiophene] yielded an inhibition at 37 µg/mL (dose 0.037 mg/ml) of 22%. Where the note is “dose 0.1 mg/ml”, the “% Inhibition (PMN 5-lipoxygenase)” value amounted to 60% and the inhibition at 100 µg/mL is 80%. Besides, under “dose 0.3 mg/ml”, the “% Inhibition (PMN 5-lipoxygenase)” value stood at 100% and the inhibition at 300 µg/mL came out at 99%.
`Cc1cc2sc(-c3ccccc3)c(O)c2c(C)n1` [N=5, R=H, X1=4-CH3,6-CH3, X2=H] yielded an inhibition at 1000 µg/mL of 99%. This molecule also returned an inhibition at 100 µg/mL (dose 0.1 mg/ml) of 43%. The molecule further had an inhibition at 300 µg/mL (dose 0.3 mg/ml) of 90%.
The molecule `COc1ccc(-c2sc3ccncc3c2O)cc1` [N=5, R=H, X1=H, X2=p-OCH3, 5-Aza-3-hydroxy-2-(4-methoxyphenyl)-benzo[b]thiophene] had an inhibition at 300 µg/mL (dose 0.3 mg/ml) of 100%. 400 µg/mL produced 63% inhibition (dose 0.4 mg/ml).
For the molecule `COc1ccc(-c2sc3cnccc3c2O)cc1` [N=6, R=H, X1=H, X2=p-OCH3, 3-Hydroxy-2-(4-methoxyphenyl)-6-azabenzo[b]thiophene], the inhibition at 30 µg/mL was found to be 45%. This molecule had an inhibition at 100 µg/mL (dose 0.1 mg/ml) of 79%. Moreover, the inhibition at 300 µg/mL (dose 0.3 mg/ml) is 100%.
The molecule `CC(=O)Oc1c(-c2ccccc2)sc2nccc(Cl)c12` [N=7, R=(CO)CH3, X1=4-Cl, X2=H] yielded an inhibition at 1000 µg/mL of 100%. This molecule yielded an inhibition at 37 µg/mL (dose 0.037 mg/ml) of 22%. The same molecule had an inhibition at 100 µg/mL (dose 0.1 mg/ml) of 32%.
`CC(=O)Oc1c(-c2ccccc2)sc2nc(Cl)ccc12` [N=7, R=(CO)CH3, X1=6-Cl, X2=H] yielded an inhibition at 1000 µg/mL of 100%. Besides, for the setting “dose 0.1 mg/ml”, the inhibition at 100 µg/mL stood at 63%. In addition, where the note is “dose 0.3 mg/ml”, the inhibition at 300 µg/mL stood at 82%.
In turn, `CC(=O)Oc1c(-c2ccccc2)sc2ncccc12` [N=7, R=(CO)CH3, X1=H, X2=H, 7-aza-3-acetyloxy-2-phenyl-benzo[b]thiophene] returned an inhibition at 10 µg/mL of 40%. For the setting “dose 0.037 mg/ml”, this molecule showed an inhibition at 37 µg/mL of 95%. The molecule further registered an inhibition at 100 µg/mL (dose 0.1 mg/ml) of 100%.
Molecule `COc1cccc(-c2sc3ncccc3c2OC(C)=O)c1` [N=7, R=(CO)CH3, X1=H, X2=m-OCH3] returned an inhibition at 37 µg/mL (dose 0.037 mg/ml) of 52%. Further, under “dose 0.1 mg/ml”, the inhibition at 100 µg/mL came out at 97%. Where the note is “dose 0.3 mg/ml”, this molecule came in with an inhibition at 300 µg/mL of 100%.
On to `COc1ccccc1-c1sc2ncccc2c1OC(C)=O` [N=7, R=(CO)CH3, X1=H, X2=o-OCH3], for which the inhibition at 30 µg/mL came to 33%. This molecule displayed an inhibition at 100 µg/mL (dose 0.1 mg/ml) of 73%. The inhibition at 300 µg/mL (dose 0.3 mg/ml) amounted to 100%.
For the molecule `CC(=O)Oc1c(-c2ccc(C(F)(F)F)cc2)sc2ncccc12` [N=7, R=(CO)CH3, X1=H, X2=p-CF3], the inhibition at 1000 µg/mL was 100%. Besides, for the setting “dose 0.1 mg/ml”, testing at 100 µg/mL gave an inhibition of 61%. The same molecule had an inhibition at 300 µg/mL (dose 0.3 mg/ml) of 100%.
The molecule `CC(=O)Oc1c(-c2ccc(C#N)cc2)sc2ncccc12` [N=7, R=(CO)CH3, X1=H, X2=p-CN] yielded an inhibition at 37 µg/mL (dose 0.037 mg/ml) of 39%. Under “dose 0.1 mg/ml”, this molecule came in with an inhibition at 100 µg/mL of 77%. Besides, 300 µg/mL produced 100% inhibition (dose 0.3 mg/ml).
`CC(=O)Oc1c(-c2ccc(F)cc2)sc2ncccc12` [N=7, R=(CO)CH3, X1=H, X2=p-F, 7-aza-3-acetyloxy-2-(4-fluorophenyl)-benzo[b]thiophene] came in with an inhibition at 10 µg/mL of 24%. Further, 37 µg/mL produced 49% inhibition (dose 0.037 mg/ml). The same molecule had an inhibition at 100 µg/mL (dose 0.1 mg/ml) of 100%.
For the molecule `COc1ccc(-c2sc3ncccc3c2OC(C)=O)cc1` [N=7, R=(CO)CH3, X1=H, X2=p-OCH3], where the note is “dose 0.037 mg/ml”, the “% Inhibition (PMN 5-lipoxygenase)” value was 70% and the inhibition at 37 µg/mL worked out at 59%. This molecule registered an inhibition at 100 µg/mL (dose 0.1 mg/ml) of 100%.
`CC(=O)Oc1c(-c2ccccc2)sc2nc(C(C)(C)C)ccc12` [N=7, R=(CO)CH3, X1=t-Bu, X2=H, 3-Acetoxy-6-(1,1-dimethylethyl)-2-phenyl-7-azabenzo[b]thiophene] gave an inhibition at 30 µg/mL of 23% and an inhibition at 1000 µg/mL of 95%. For the same molecule, the inhibition at 100 µg/mL (dose 0.1 mg/ml) came out at 34%. Further, the inhibition at 300 µg/mL (dose 0.3 mg/ml) was found to be 70%.
On to `Oc1c(-c2ccccc2)sc2ncccc12` [N=7, R=H, X1=H, X2=H, 3-Hydroxy-2-phenyl-7-azabenzo[b]thiophene], for which, where the note is “dose 0.012 mg/ml”, 12 µg/mL produced 32% inhibition. The molecule also came in with an inhibition at 100 µg/mL (dose 0.1 mg/ml) of 100%.
Turning to `COc1cccc(-c2sc3ncccc3c2O)c1` [N=7, R=H, X1=H, X2=m-OCH3, 7-Aza-3-hydroxy-2-(3-methoxyphenyl)-benzo[b]thiophene], the inhibition at 30 µg/mL came out at 76%. In addition, at 100 µg/mL the inhibition (dose 0.1 mg/ml) was 100%. Also, where the note is “dose 0.3 mg/ml”, the inhibition at 300 µg/mL turned out to be 100%.
In turn, `Oc1c(-c2ccc(F)cc2)sc2ncccc12` [N=7, R=H, X1=H, X2=p-F] came in with an inhibition at 10 µg/mL of 32%. The molecule further showed an inhibition at 37 µg/mL (dose 0.037 mg/ml) of 88%. In addition, the inhibition at 100 µg/mL (dose 0.1 mg/ml) came out at 99%. The same molecule gave an inhibition at 300 µg/mL (dose 0.3 mg/ml) of 100%.
Molecule `COc1ccc(-c2sc3ncccc3c2O)cc1` [N=7, R=H, X1=H, X2=p-OCH3] gave an inhibition at 37 µg/mL (dose 0.037 mg/ml) of 24%. This molecule showed an inhibition at 100 µg/mL (dose 0.1 mg/ml) of 100%.
On to `CC(C)(C)c1ccc2c(O)c(-c3ccccc3)sc2n1` [N=7, R=H, X1=t-Bu, X2=H, 6-(1,1-dimethylethyl)-3-hydroxy-2-phenyl-7-azabenzo[b]thiophene], for which 1000 µg/mL produced 98% inhibition. In addition, the inhibition at 100 µg/mL (dose 0.1 mg/ml) was 53%. This molecule also came in with an inhibition at 300 µg/mL (dose 0.3 mg/ml) of 98%.
`Oc1c(-c2cccnc2)sc2ncccc12` [drawing 24, N=7, R=H, X1=H, X2=H] yielded an inhibition at 30 µg/mL of 0% and an inhibition at 1000 µg/mL of 98%. In addition, testing at 100 µg/mL (dose 0.1 mg/ml) gave an inhibition of 39%. In addition, 300 µg/mL produced 94% inhibition (dose 0.3 mg/ml).
`COc1ccc(-c2sc3c[n+]([O-])ccc3c2OC(C)=O)cc1` [drawing 25, N=6, R=(CO)CH3, X1=H]: the inhibition at 1000 µg/mL amounted to 90%. Under “dose 0.1 mg/ml”, this molecule displayed an inhibition at 100 µg/mL of 33%. Moreover, the inhibition at 300 µg/mL (dose 0.3 mg/ml) was 49%.
